Data published in publication PMC2730737 (Biochemistry, 2009).
Residue numbers refer to the chain shown, from its start.

Tests used:
AdoMetDC F223A mutant = molecular target: T1, AdoMetDC F223A mutant (Homo sapiens, UniProt P17707, F223A); experiment: Stopped-flow intrinsic protein fluorescence binding kinetics, F223A mutant; details: single exponential fit
T1 sequence (P17707 1-67 limits assumed): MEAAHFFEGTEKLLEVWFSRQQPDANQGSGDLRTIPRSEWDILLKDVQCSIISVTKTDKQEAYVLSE
T1 sequence (P17707 68-334 F223A limits assumed): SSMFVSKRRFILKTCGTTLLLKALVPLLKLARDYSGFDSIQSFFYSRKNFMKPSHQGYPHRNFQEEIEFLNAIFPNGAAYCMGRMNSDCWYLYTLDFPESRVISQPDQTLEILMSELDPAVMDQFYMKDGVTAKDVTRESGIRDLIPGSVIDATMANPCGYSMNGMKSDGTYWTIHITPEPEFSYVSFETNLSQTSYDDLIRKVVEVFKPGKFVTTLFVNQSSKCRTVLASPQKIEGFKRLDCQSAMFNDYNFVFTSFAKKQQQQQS

[1] = modeling studies using NMR constraints, molecular mechanics; cited from earlier work
WT AdoMetDC = molecular target: T2, WT AdoMetDC (Homo sapiens, UniProt P17707); experiment: Stopped-flow intrinsic protein fluorescence binding kinetics, WT AdoMetDC; details: for intrinsic fluorescence change on rapid mixing with AdoMetDC: stopped-flow, excitation 298 nm, emission 340 nm
T2 sequence (P17707 1-67 limits assumed): T1 sequence (P17707 1-67 limits assumed)
T2 sequence (P17707 68-334 limits assumed): T1 sequence (P17707 68-334 F223A limits assumed) with A156F

AdoMetDC = molecular target: T3, AdoMetDC (Homo sapiens, UniProt P17707); details: cited from earlier work
T3 sequence (P17707 1-67 limits assumed): T1 sequence (P17707 1-67 limits assumed)
T3 sequence (P17707 68-334 limits assumed): T1 sequence (P17707 68-334 F223A limits assumed) with A156F

Row | SMILES | k1 (slope) (AdoMetDC F223A mutant) | k−1 (y-intercept) (AdoMetDC F223A mutant) [s⁻¹] | energy difference between the anti and syn conformations in solution [1] [kcal/mol] | k2 + k−2 (WT AdoMetDC; WT enzyme, hyperbolic fit of slow phase) [s⁻¹] | k−1 (WT AdoMetDC; WT enzyme, linear fit of fast phase, 25 °C, pH 7.5) [s⁻¹] | intrinsic fluorescence change on rapid mixing with AdoMetDC (WT AdoMetDC) | IC50 (AdoMetDC) [µM]
1 | C[S+](CC[C@H](N)C(=O)[O-])C[C@H]1O[C@@H](n2cnc3c(N)ncnc32)[C@H](O)[C@@H]1O (stereo partly drawn) [AdoMet, S-adenosylmethionine] | 1.7 ± 0.3 × 10^−4 μM^−1s^−1 | 2.4 ± 0.2 | -34 | 3.7 ± 0.2 | 33 ± 2 | intrinsic fluorescence change was observed | –
2 | Nc1ncnc2c1ncn2[C@@H]1O[C@H](CSCC[C@H](N)C(=O)O)[C@@H](O)[C@H]1O [SAH, S-adenosylhomocysteine] | – | – | – | – | – | no significant change | –
3 | C[S+](C)C[C@H]1O[C@@H](n2cnc3c(N)ncnc32)[C@H](O)[C@@H]1O [MMTA, 5′-deoxy-5′-(dimethylsulfonio)adenosine] | – | – | – | – | – | too weak to measure | 15
